Test results as given in ChEMBL document CHEMBL6134909 (Eur J Med Chem, 2025).
pEC50: −log10 of the molar value.

Experiments:
Influenza A virus [1] = experiment: Anti-viral activity against Influenza A virus H7N1 pseudotype infected in human A549 cells assessed as inhibition of viral entry incubated for 48 hrs by Neolite Reporter Gene Assay; assay type: functional, organism-based; conditions: H7N1, A549, 48 h
[2] = Cytotoxicity against human A549 cells incubated for 48 hrs by CellTiter-Glo Luminescent Cell Viability Assay; assay type: toxicity, cell-based
Influenza A virus [3] = experiment: Anti-viral activity against wild-type Influenza A virus H7N1 pseudotype infected in human A549 cells assessed as inhibition of viral entry incubated for 48 hrs by Neolite Reporter Gene Assay; assay type: functional, organism-based; conditions: H7N1, A549, 48 h
[4] = Metabolic stability in human liver microsomes assessed as compound remaining at 2 to 10 uM measured after 60 mins in presence of NADPH by LC-MS/MS analysis; assay type: ADME, Microsome; conditions: dose 2-10 µM, read-out: Stability
[5] = Metabolic stability in BALB/c mouse liver microsomes assessed as compound remaining at 2 to 10 uM measured after 60 mins in presence of NADPH by LC-MS/MS analysis; assay type: ADME, Microsome; conditions: dose 2-10 µM, read-out: Stability
[6] = Metabolic stability in human liver microsomes assessed as compound remaining at 2 to 10 uM measured after 60 mins in absence of NADPH by LC-MS/MS analysis; assay type: ADME, Microsome; conditions: dose 2-10 µM, read-out: Stability
[7] = Metabolic stability in BALB/c mouse liver microsomes assessed as compound remaining at 2 to 10 uM measured after 60 mins in absence of NADPH by LC-MS/MS analysis; assay type: ADME, Microsome; conditions: dose 2-10 µM, read-out: Stability
[8] = Metabolic stability in human plasma at 2 uM measured after 60 mins by LC-MS/MS analysis; assay type: ADME, cell-free; conditions: 1 h
[9] = Metabolic stability in mouse plasma at 2 uM measured after 60 mins by LC-MS/MS analysis; assay type: ADME, cell-free; conditions: 1 h
[10] = Half life in CD1 mouse at 25 mg/kg, ip; assay type: ADME, organism-based; conditions: in vivo
[11] = Tmax in CD1 mouse at 25 mg/kg, ip; assay type: ADME, organism-based; conditions: in vivo
[12] = Cmax in CD1 mouse at 25 mg/kg, ip; assay type: ADME, organism-based; conditions: in vivo
[13] = AUC (infinity) in CD1 mouse at 25 mg/kg, ip; assay type: ADME, organism-based; conditions: in vivo
[14] = MRT (infinity) in CD1 mouse at 25 mg/kg, ip; assay type: ADME, organism-based; conditions: in vivo
[15] = Apparent volume of distribution in CD1 mouse at 25 mg/kg, ip; assay type: ADME, organism-based; conditions: in vivo
[16] = Clearance in CD1 mouse at 25 mg/kg, ip; assay type: ADME, organism-based; conditions: in vivo

SMILES	pEC50 (Influenza A virus [1])	CC50 at 48 h [2] [nM]	pEC50 (Influenza A virus [3])	remaining at 1 h, up to 10 µM [4] [%]	remaining at 1 h, up to 10 µM [5] [%]	remaining at 1 h, up to 10 µM [6] [%]	remaining at 1 h, up to 10 µM [7] [%]	Stability [8]	Stability [9]	half-life [10] [h]	Tmax [11] [h]	Cmax [12] [ng/mL]	AUC(0-inf) [13] [ng·h/mL]	MRT inf [14] [h]	Vz [15] [L/kg]	CL/F [16] [mL/min/kg]
Oc1ccc(-c2nc3ncccn3c2NC2CCCCC2)c(F)c1	7.05	> 100000	6.96	68.9	72.7	115	101	Stable	Stable	3.61	0.083	14500	3660	0.842	35.639	114
Fc1cc(OCc2ccc(C(F)(F)F)cc2)ccc1-c1nc2ncccn2c1NC1CCCCC1	6.33	> 100000		36	60.5	105	104	Stable	Stable	3.82	2.67	2930	33900	6.25	4.226	12.8
